The record followed here is ChEMBL document CHEMBL1201862, “PubChem BioAssay data set” (2004).

Among the test systems are HCT-15; NCI-H23; SK-OV-3; MCF7; HOP-62; HT-29; MDA-MB-435; 786-0; SNB-75; ACHN; HCC 2998; EKVX; CAKI-1; KM12; TK-10; IGROV-1; T47D; SK-MEL-5; OVCAR-4; HOP-92.
Common to all, as to assay: growth of human tumour cells (NCI), 48 h

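48-hour exposure; five concentrations; linearly interpolated endpoints. The concentration for 50% growth inhibition is given as GI50.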 Active and inactive are the calls of the source. No stated cut-off is given here; in the data, active = GI50 up to about 1.1 µM and inactive = higher.

Regarding `O=C(NC(=O)c1ccccc1[N+](=O)[O-])Nc1ccc(Oc2ncc(Cl)cn2)c([N+](=O)[O-])c1`, the GI50 in the test with HCT-15 was 0.0855 µM; in the test with NCI-H23, 0.411 µM (active); with SK-OV-3, 0.146 µM (active); in the test with MCF7 it was 0.12 µM (active); in the test with HOP-62 it was 0.303 µM (active); in the test with HT-29 it was 0.147 µM (active). For the same compound, the GI50 in the test with MDA-MB-435 was 0.0214 µM (active); in the test with 786-0, 0.225 µM (active); in the test with SNB-75, 0.0767 µM (active); with ACHN it was 0.641 µM (active); with HCC 2998, 0.426 µM (active); in the test on EKVX it was 2.93 µM (inactive). Also, the GI50 with CAKI-1 was 0.0456 µM (active); in the test with KM12, 0.0975 µM (active); in the test with TK-10, > 100 µM (inactive); in the test on IGROV-1, 0.368 µM (active); in the test with T47D, 0.414 µM (active); in the test on SK-MEL-5, 0.0773 µM (active). In addition, the GI50 with OVCAR-4 was 21.9 µM (inactive); with HOP-92 it was 0.27 µM (active).

Take `CC1(C)[C@@H]2C[C@H]1c1cnc(-c3ccccn3)cc1[C@H]2C(O)[C@@H]1c2cc(-c3ccccn3)ncc2[C@H]2C[C@@H]1C2(C)C` (stereo not given in full): the GI50 with HCT-15 is 0.0718 µM; in the test on NCI-H23, 0.189 µM (active); in the test with SK-OV-3, 0.0867 µM (active); in the test with MCF7 it was 0.0796 µM (active); in the test on HOP-62, 0.073 µM (active); in the test with HT-29, 0.112 µM (active). Further, the GI50 was 1 µM (active) in the test with MDA-MB-435; 0.0451 µM (active) in the test with 786-0; 0.773 µM (active) in the test on SNB-75; 0.113 µM (active) in the test with ACHN; 0.993 µM (active) in the test on HCC 2998; 0.165 µM (active) in the test on EKVX. Besides, the GI50 was 0.106 µM (active) with CAKI-1; 0.769 µM (active) in the test on KM12; 2.14 µM (inactive) in the test on TK-10; 0.043 µM (active) in the test on IGROV-1; 0.505 µM (active) with T47D; 0.0461 µM (active) with SK-MEL-5. Besides, the results for the GI50 in the test with OVCAR-4 and in the test on HOP-92 were 0.0618 µM (active) and 0.322 µM (active), respectively.

As for `CC(C)(CN)CN`, the GI50 in the test on HCT-15 was more than 100 µM; in the test with NCI-H23, > 100 µM (inactive); in the test on SK-OV-3 it was > 100 µM (inactive); in the test on MCF7 it was > 100 µM (inactive); in the test with HOP-62 it was > 100 µM (inactive); in the test on HT-29, > 100 µM (inactive). Also, the GI50 with MDA-MB-435, in the test with 786-0, in the test on SNB-75, in the test with ACHN, with HCC 2998 and with EKVX was > 100 µM (inactive) in each case. Moreover, the GI50 in the test with CAKI-1, in the test with KM12, in the test on TK-10, in the test on IGROV-1, in the test with T47D and with SK-MEL-5 was > 100 µM (inactive) each time. Further, the GI50 with OVCAR-4 and in the test with HOP-92 was > 100 µM (inactive) in each case.

As to `O=[N+]([O-])c1ccc(S(=O)(=O)Cc2ccccc2)c([N+](=O)[O-])c1`, the GI50 in the test on HCT-15 was 1.82 µM; in the test with NCI-H23, 1.9 µM (inactive); in the test on SK-OV-3, 6.78 µM (inactive); in the test on MCF7, 1.87 µM (inactive); in the test with HOP-62, 2.9 µM (inactive); with HT-29, 2.18 µM (inactive). Also, the GI50 in the test with MDA-MB-435 is 1.75 µM (inactive); in the test on 786-0, 1.58 µM (inactive); in the test with SNB-75, 7.48 µM (inactive); in the test with ACHN, 1.58 µM (inactive); with HCC 2998, 7.43 µM (inactive); in the test on EKVX it was 1.87 µM (inactive). The GI50 in the test on CAKI-1 is 1.72 µM (inactive); in the test with KM12, 7.38 µM (inactive); in the test with TK-10, 1.88 µM (inactive); in the test on IGROV-1, 2.6 µM (inactive); in the test with T47D it was 1.35 µM (inactive); in the test on SK-MEL-5 it was 2.12 µM (inactive). The GI50 with OVCAR-4 is 2.2 µM (inactive); with HOP-92, 1.79 µM (inactive).

Consider `N#Cc1c(-c2ccc(Cl)cc2)cc(-c2ccc(Nc3ccnc4cc(C(F)(F)F)ccc34)cc2)[nH]c1=O`, for which the GI50 in the test on HCT-15 is more than 100 µM; in the test on NCI-H23 it was > 45 µM (inactive); in the test on SK-OV-3 it was 28.1 µM (inactive); in the test with MCF7 it was 4.79 µM (inactive); in the test on HOP-62, 23.6 µM (inactive); in the test with HT-29 it was 7.13 µM (inactive). The GI50 in the test with MDA-MB-435 is 3.33 µM (inactive); in the test on 786-0, 12.4 µM (inactive); in the test with SNB-75, 11.7 µM (inactive); in the test on ACHN it was > 100 µM (inactive); in the test on HCC 2998, > 100 µM (inactive); with EKVX, > 100 µM (inactive). In addition, the GI50 in the test with CAKI-1 was > 43.4 µM (inactive); with KM12, 67.1 µM (inactive); with TK-10, 24.4 µM (inactive); in the test on IGROV-1, > 54.3 µM (inactive); in the test on T47D, 4.79 µM (inactive); in the test with SK-MEL-5, 19.1 µM (inactive). Also, the GI50 was 8.41 µM (inactive) in the test on OVCAR-4 and 17.1 µM (inactive) in the test on HOP-92.

Take `CCCNc1c(Cl)cc(Cl)c2[nH]c3ccccc3c(=O)c12`: the GI50 in the test on HCT-15 was 98.6 µM; in the test on NCI-H23 it was 27.7 µM (inactive); with SK-OV-3, 75.9 µM (inactive); in the test with MCF7 it was 28.4 µM (inactive); in the test on HOP-62, 56.1 µM (inactive); in the test with HT-29, 22.5 µM (inactive). The GI50 is 39.9 µM (inactive) with MDA-MB-435; 30.2 µM (inactive) with 786-0; 31.5 µM (inactive) in the test with SNB-75; 24 µM (inactive) in the test on ACHN; 41.3 µM (inactive) with HCC 2998; 35.6 µM (inactive) in the test on EKVX. The GI50 was 62.5 µM (inactive) in the test with CAKI-1; 27.2 µM (inactive) with KM12; 51.3 µM (inactive) with TK-10; 24.5 µM (inactive) in the test with IGROV-1; > 100 µM (inactive) in the test on T47D; 32.7 µM (inactive) in the test on SK-MEL-5. For the same compound, the GI50 was > 100 µM (inactive) with OVCAR-4 and 3.42 µM (inactive) in the test on HOP-92.

On to `Nc1nc(Cl)cc(NCC2(O)CCC2)n1`, for which the GI50 was more than 100 µM in the test on HCT-15; > 100 µM (inactive) in the test on NCI-H23; > 100 µM (inactive) in the test with SK-OV-3; > 100 µM (inactive) with MCF7; > 100 µM (inactive) with HOP-62; > 100 µM (inactive) in the test on HT-29. The GI50 in the test with MDA-MB-435, with 786-0, with SNB-75, with ACHN, with HCC 2998 and in the test on EKVX was > 100 µM (inactive) each time. Moreover, the GI50 in the test on CAKI-1, with KM12, with TK-10, in the test with IGROV-1, with T47D and in the test with SK-MEL-5 was > 100 µM (inactive) throughout. Also, the GI50 with OVCAR-4 and with HOP-92 was > 100 µM (inactive) throughout.

As for `Oc1nc2nc3ccccc3nc2nc1O`, the GI50 was more than 100 µM with HCT-15; > 100 µM (inactive) in the test on NCI-H23; > 100 µM (inactive) with SK-OV-3; > 100 µM (inactive) with MCF7; > 100 µM (inactive) in the test on HOP-62; > 100 µM (inactive) in the test on HT-29. Besides, the GI50 in the test on MDA-MB-435 is > 100 µM (inactive); in the test with 786-0, > 100 µM (inactive); with SNB-75, 75.2 µM (inactive); with ACHN, > 100 µM (inactive); in the test on HCC 2998, > 100 µM (inactive); in the test on EKVX, > 100 µM (inactive). Also, the GI50 in the test with CAKI-1, in the test on KM12, in the test with TK-10, in the test with IGROV-1, with T47D and with SK-MEL-5 was > 100 µM (inactive) in each case. Besides, the GI50 in the test with OVCAR-4 and in the test on HOP-92 was > 100 µM (inactive) each time.

Consider `CC(/C=C/C(=O)NO)=C\C(C)C(=O)c1ccc(N(C)C)cc1` (stereo not given), for which the GI50 in the test on HCT-15 is 0.0313 µM; in the test with NCI-H23 it was 0.0331 µM (active); with SK-OV-3 it was 0.0498 µM (active); with MCF7 it was < 0.01 µM (active); in the test on HOP-62, 0.0391 µM (active); in the test with HT-29 it was < 0.01 µM (active). For the same compound, the GI50 was 0.0159 µM (active) in the test with MDA-MB-435; 0.0339 µM (active) in the test on 786-0; 0.0244 µM (active) in the test with SNB-75; 0.0231 µM (active) with ACHN; < 0.01 µM (active) in the test with HCC 2998; 0.261 µM (active) in the test with EKVX. For the same compound, the GI50 was 0.029 µM (active) with CAKI-1; 0.0256 µM (active) in the test with KM12; < 0.0177 µM (active) with TK-10; 0.0259 µM (active) in the test on IGROV-1; < 0.01 µM (active) in the test on T47D; 0.0313 µM (active) in the test on SK-MEL-5. Besides, the GI50 with OVCAR-4 is 0.0409 µM (active); in the test with HOP-92, 0.0652 µM (active).

As for `COc1ccc(\N=C/C=C/C(=C/COC(C)=O)OC(C)=O)cc1`, the GI50 with HCT-15 is 36.6 µM; in the test with NCI-H23, 16.8 µM (inactive); in the test on SK-OV-3, 91.2 µM (inactive); in the test on MCF7, 21.7 µM (inactive); with HOP-62 it was 51.4 µM (inactive); with HT-29, 23.2 µM (inactive). In addition, the GI50 was 18.8 µM (inactive) in the test on MDA-MB-435; 23 µM (inactive) in the test on 786-0; > 100 µM (inactive) in the test with SNB-75; 17.3 µM (inactive) with ACHN; > 100 µM (inactive) with HCC 2998; 51.8 µM (inactive) with EKVX. In addition, the GI50 is 23.6 µM (inactive) with CAKI-1; 28.6 µM (inactive) in the test on KM12; 37.2 µM (inactive) with TK-10; 21.1 µM (inactive) with IGROV-1; 72.9 µM (inactive) in the test with T47D; 29 µM (inactive) in the test on SK-MEL-5. Further, the GI50 was 27.2 µM (inactive) in the test on OVCAR-4 and 20.5 µM (inactive) in the test with HOP-92.
